The source of these data is patent publication US20230219986A1, “NOVEL AMINOPYRIMIDINE EGFR INHIBITOR” (QILU PHARMACEUTICAL CO., LTD., priority 2020, published 2023).

Structures are written as SMILES.

In experiment [1] the test system is EGFR wild-type cell line A431. In words: Cell proliferation inhibition experiment (CellTiter-Glo), A431. Type of experiment: cell-based. As to conditions: Homo sapiens, A-431, 72 h, A431 cells, Cell Titer-Glo, read-out: A431 EGFR WT IC50. A digest of the protocol: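 A431 cells, 800 per well, were cultured 24 h and then exposed to serially diluted compound (0.1% DMSO final) for 72 h at 37° C., 5% CO2.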
Background: Cellular ATP, detected with luciferase, serves as a proxy for viable cell number.

In experiment [2] the target is Ba/F3 L858R/T790M/C797S EGFR triple mutant cell line (Homo sapiens, UniProt P00533, T790M/C797S/L858R, cells depend on it). In words: Cell proliferation inhibition experiment (CellTiter-Glo), Ba/F3 L858R/T790M/C797S. In kind it is cell-based. As to conditions: 72 hours, Cell Titer-Glo, read-out: Ba/F3 (L858R/T790M/C797S) IC50.
Experiment [3] concerns the target Ba/F3 De119/T790M/C797S EGFR triple mutant cell line (Homo sapiens, UniProt P00533, T790M/C797S, cells depend on it, form not given). In words: Cell proliferation inhibition experiment (CellTiter-Glo), Ba/F3 De119/T790M/C797S. Type of experiment: cell-based. As to conditions: Ba/F3 Del19/T790M/C797S EGFR triple mutant cells, 72 hours, Cell Titer-Glo; read-out: Ba/F3 (Del19/T790M/C797S) IC50.

The next experiment addresses T1, wild-type EGFR (Homo sapiens, UniProt P00533).
T1 construct: purchased Signalchem
In words: Enzymology experiment in vitro (HTRF/FRET kinase activity), wild-type EGFR. In kind it is biochemical. As to conditions: HTRF KinEASE-TK, read-out: EGFR (WT) IC50. In outline: (§1)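 HTRF KinEASE-TK format: EGFR enzyme preincubated with compound 10 min at room temperature, then peptide substrate plus ATP added for 40 min. Detection with EDTA, XL665-streptavidin and Eu³⁺-labeled antibody for 1 h.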

Experiment [4] deals with T2, L858R/T790M/C797S triple mutant EGFR (Homo sapiens, UniProt P00533, C797S/L858R/T790M).
T2 construct: purchased Signalchem
In words: Enzymology experiment in vitro (HTRF/FRET kinase activity), L858R/T790M/C797S triple mutant EGFR. Type of experiment: biochemical. To be noted: HTRF KinEASE-TK, read-out: EGFR (L858R/T790M/C797S) IC50. In outline: as §1

Sequence of Ba/F3 L858R/T790M/C797S EGFR triple mutant cell line (P00533 whole entry T790M/C797S/L858R): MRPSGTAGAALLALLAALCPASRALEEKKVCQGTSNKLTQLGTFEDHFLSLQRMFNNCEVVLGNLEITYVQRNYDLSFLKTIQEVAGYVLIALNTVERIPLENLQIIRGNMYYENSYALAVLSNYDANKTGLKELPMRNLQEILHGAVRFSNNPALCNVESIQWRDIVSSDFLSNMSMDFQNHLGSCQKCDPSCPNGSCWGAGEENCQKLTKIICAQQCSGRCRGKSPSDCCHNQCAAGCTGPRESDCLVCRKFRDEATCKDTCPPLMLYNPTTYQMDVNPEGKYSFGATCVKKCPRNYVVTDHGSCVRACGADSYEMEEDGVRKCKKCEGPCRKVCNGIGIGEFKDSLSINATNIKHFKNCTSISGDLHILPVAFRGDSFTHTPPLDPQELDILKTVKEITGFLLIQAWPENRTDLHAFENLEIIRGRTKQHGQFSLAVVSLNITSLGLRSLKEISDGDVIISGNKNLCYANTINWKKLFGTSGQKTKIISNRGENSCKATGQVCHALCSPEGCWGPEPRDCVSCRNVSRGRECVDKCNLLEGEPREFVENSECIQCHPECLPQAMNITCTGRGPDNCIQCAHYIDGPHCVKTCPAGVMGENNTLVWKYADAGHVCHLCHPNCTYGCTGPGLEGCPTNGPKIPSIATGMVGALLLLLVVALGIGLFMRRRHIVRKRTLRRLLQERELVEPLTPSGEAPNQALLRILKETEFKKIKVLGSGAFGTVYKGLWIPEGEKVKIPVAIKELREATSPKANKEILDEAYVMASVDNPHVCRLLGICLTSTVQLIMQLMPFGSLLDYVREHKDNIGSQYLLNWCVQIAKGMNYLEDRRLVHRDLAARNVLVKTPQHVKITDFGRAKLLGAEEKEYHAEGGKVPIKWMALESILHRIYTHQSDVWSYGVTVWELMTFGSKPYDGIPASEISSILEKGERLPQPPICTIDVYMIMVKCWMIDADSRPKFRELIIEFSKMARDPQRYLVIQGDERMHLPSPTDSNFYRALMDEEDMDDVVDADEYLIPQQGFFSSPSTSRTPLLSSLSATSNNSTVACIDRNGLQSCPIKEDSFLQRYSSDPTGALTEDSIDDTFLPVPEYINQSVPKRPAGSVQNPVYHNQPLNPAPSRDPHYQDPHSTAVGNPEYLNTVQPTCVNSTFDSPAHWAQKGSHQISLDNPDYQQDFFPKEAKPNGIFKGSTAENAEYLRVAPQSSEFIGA
T2 sequence (P00533 25-1210 T790M/C797S/L858R): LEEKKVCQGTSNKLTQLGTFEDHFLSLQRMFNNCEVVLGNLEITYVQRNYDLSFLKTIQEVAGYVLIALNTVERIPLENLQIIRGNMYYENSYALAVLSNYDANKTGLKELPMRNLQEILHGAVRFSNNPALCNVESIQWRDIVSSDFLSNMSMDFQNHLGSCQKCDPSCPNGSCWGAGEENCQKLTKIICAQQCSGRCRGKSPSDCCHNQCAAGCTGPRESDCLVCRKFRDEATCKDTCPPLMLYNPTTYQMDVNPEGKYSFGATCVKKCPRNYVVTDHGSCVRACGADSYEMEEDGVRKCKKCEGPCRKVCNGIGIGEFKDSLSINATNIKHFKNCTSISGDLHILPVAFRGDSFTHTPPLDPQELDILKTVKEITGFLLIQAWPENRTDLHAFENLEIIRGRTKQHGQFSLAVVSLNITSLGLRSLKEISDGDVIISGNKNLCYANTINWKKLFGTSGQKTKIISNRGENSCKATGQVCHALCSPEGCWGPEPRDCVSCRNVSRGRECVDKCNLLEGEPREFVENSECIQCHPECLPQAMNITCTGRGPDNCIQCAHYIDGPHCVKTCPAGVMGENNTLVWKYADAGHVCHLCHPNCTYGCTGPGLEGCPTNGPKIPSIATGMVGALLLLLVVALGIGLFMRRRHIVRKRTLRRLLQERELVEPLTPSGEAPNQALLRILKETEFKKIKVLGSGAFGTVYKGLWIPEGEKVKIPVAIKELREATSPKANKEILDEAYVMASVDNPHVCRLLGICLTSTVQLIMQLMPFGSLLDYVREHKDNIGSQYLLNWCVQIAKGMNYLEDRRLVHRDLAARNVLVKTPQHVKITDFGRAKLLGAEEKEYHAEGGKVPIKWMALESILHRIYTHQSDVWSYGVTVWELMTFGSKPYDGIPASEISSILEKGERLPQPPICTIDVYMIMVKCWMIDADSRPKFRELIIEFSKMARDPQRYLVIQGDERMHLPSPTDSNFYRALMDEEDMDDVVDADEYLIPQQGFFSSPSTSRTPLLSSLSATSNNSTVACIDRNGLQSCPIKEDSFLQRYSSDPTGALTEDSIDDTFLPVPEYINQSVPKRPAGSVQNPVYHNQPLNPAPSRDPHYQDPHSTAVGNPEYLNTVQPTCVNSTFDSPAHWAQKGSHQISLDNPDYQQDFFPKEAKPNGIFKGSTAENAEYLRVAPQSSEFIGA
Sequence of Ba/F3 De119/T790M/C797S EGFR triple mutant cell line (P00533 with tags, fused parts or gaps DEL746-750/T790M/C797S, form open): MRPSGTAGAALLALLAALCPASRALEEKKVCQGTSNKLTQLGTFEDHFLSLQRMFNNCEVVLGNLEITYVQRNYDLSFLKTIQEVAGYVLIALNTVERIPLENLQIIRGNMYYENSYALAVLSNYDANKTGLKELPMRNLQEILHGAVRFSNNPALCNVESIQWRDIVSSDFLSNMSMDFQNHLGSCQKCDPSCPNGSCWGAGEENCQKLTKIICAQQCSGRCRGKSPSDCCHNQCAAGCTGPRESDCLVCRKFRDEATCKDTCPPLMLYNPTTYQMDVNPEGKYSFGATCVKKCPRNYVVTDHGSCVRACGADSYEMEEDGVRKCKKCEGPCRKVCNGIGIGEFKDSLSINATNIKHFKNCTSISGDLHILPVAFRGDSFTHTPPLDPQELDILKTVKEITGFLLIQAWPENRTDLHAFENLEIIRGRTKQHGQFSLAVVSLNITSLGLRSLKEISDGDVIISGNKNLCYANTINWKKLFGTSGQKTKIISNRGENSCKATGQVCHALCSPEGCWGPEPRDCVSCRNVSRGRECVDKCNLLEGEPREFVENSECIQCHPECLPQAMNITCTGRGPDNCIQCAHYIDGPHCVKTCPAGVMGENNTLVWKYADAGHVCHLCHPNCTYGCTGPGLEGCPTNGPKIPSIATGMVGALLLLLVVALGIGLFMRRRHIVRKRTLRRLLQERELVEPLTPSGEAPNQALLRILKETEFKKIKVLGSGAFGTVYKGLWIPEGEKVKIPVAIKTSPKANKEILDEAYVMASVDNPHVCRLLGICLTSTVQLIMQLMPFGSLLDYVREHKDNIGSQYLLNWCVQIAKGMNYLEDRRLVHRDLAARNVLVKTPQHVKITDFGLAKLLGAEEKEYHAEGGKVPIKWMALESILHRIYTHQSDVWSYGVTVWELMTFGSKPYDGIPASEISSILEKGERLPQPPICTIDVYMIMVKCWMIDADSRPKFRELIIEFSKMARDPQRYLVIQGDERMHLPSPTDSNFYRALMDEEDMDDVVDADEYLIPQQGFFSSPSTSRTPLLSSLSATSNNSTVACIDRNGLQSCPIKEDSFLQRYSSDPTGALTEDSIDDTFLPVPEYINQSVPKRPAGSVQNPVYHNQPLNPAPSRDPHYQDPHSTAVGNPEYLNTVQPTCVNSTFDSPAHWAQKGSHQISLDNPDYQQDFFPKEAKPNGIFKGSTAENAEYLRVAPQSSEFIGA
T1 sequence (P00533 25-1210): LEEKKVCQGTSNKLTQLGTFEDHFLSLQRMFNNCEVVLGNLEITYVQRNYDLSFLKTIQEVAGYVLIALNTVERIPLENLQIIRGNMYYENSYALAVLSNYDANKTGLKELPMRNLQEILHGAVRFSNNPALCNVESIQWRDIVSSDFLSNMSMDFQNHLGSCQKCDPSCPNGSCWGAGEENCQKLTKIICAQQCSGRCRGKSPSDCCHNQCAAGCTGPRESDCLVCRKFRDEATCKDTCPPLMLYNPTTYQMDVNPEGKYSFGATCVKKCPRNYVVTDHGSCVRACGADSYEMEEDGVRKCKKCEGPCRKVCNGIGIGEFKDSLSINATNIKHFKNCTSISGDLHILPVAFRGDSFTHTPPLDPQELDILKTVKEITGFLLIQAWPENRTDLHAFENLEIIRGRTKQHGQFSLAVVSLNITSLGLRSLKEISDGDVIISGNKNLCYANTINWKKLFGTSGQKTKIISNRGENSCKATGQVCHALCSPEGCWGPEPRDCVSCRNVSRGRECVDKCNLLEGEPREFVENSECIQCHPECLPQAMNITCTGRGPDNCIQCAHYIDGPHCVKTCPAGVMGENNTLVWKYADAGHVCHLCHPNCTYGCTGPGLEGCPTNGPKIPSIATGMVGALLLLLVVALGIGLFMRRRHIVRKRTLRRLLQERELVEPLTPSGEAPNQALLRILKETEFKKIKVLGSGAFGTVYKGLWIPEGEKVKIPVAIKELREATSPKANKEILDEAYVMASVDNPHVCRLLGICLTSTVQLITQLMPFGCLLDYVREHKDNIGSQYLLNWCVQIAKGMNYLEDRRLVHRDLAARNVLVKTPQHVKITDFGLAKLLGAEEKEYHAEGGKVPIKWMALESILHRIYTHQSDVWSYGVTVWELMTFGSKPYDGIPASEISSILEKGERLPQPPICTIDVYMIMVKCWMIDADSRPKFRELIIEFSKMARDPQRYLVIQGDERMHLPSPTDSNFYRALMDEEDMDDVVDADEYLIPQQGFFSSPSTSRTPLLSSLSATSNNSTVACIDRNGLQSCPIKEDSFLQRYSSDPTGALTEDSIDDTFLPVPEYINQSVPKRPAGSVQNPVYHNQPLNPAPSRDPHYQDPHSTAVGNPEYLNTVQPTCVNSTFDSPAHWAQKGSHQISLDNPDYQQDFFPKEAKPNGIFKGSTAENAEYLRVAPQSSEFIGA

Regarding `COc1cc(N2CCN3CCCC[C@H]3C2)c(-c2cnn(C)c2)cc1Nc1ncc(Br)c(Nc2ccc3nccnc3c2P(C)(C)=O)n1` [compound 166], the IC50 in experiment [1] is 92.1 nM; on wild-type EGFR, 3.81 nM; in experiment [4], 0.48 nM. Also, the GI50 came out at 5.05 nM in experiment [2] and 1.58 nM in experiment [3].
Consider `COc1cc(N2CCC3(CCN(CC4CC4)CC3)CC2)c(-c2cnn(C)c2)cc1Nc1ncc(Br)c(Nc2ccc3nccnc3c2P(C)(C)=O)n1` [compound 167], for which the IC50 in experiment [1] worked out at 47.4 nM; at wild-type EGFR it was 1.95 nM; in experiment [4], 0.79 nM. In addition, the GI50 in experiment [2] was determined as 4.34 nM; in experiment [3], 2.97 nM.
For the compound `COc1cc(N2CCC3CCN(C)C3C2)c(-c2cnn(C)c2)cc1Nc1ncc(Br)c(Nc2ccc3nccnc3c2P(C)(C)=O)n1` (stereo not drawn) [compound 168], the IC50 in experiment [1] was found to be 67.4 nM; at wild-type EGFR, 2.57 nM; in experiment [4], 0.35 nM. For the same compound, the GI50 was 4.2 nM in experiment [2] and 0.71 nM in experiment [3].
Turning to `COc1cc(N2CCO[C@H](C)C2)c(-c2cnn(C)c2)cc1Nc1ncc(Br)c(Nc2ccc3nccnc3c2P(C)(C)=O)n1` [compound 169], the IC50 in experiment [1] was found to be 175 nM; on wild-type EGFR it was 4.39 nM; in experiment [4], 0.73 nM. For the same compound, the GI50 in experiment [2] was determined as 4.24 nM; in experiment [3], 2.36 nM.
The corresponding values for `COc1cc(N2CCO[C@@H](C)C2)c(-c2cnn(C)c2)cc1Nc1ncc(Br)c(Nc2ccc3nccnc3c2P(C)(C)=O)n1` [compound 170] are 280 nM, 4.94 nM, 0.45 nM, 8.14 nM and 1.8 nM.
Consider `COc1cc(N2CCOCC2)c(-c2cnn(C)c2)cc1Nc1ncc(Br)c(Nc2ccc3nccnc3c2N(C)S(C)(=O)=O)n1` [compound 171, N-(6-((5-bromo-2-((2-methoxy-5-(1-methyl-1H-pyrazol-4-yl)-4-morpholinophenyl)amino)pyrimidin-4-yl)amino)quinoxalin-5-yl)-N-methylmethanesulfonamide], for which the IC50 came out at 623 nM in experiment [1], 4.59 nM at wild-type EGFR and 0.29 nM in experiment [4]. The results for the GI50 in experiment [2] and in experiment [3] were 7.23 nM and 2.13 nM, respectively.
On to `COc1cc(N2CCC(N3CC4(CN(C)C4)C3)CC2)c(-c2cnn(C)c2)cc1Nc1ncc(Br)c(Nc2ccc3nccnc3c2P(C)(C)=O)n1` [compound 172], for which the IC50 in experiment [1] was 329 nM; on wild-type EGFR it was 0.69 nM; in experiment [4], 0.14 nM. For the same compound, the figures for the GI50 in experiment [2] and in experiment [3] were 328 nM and 102 nM, respectively.
For the compound `COc1cc(N2CCC(N(C)C(C)C(F)(F)F)CC2)c(-c2cnn(C)c2)cc1Nc1ncc(Br)c(Nc2ccc3nccnc3c2P(C)(C)=O)n1` (stereo not drawn) [compound 173], the values for the IC50 (in experiment [1]; at wild-type EGFR; in experiment [4]) were 738 nM, 50.7 nM and 6 nM, respectively. In addition, the GI50 in experiment [2] was determined as 24.5 nM; in experiment [3], 11.2 nM.
For the compound `COc1cc(N2CCN3CCCC[C@@H]3C2)c(-c2cnn(C)c2)cc1Nc1ncc(Br)c(Nc2ccc3nccnc3c2P(C)(C)=O)n1` [compound 175], the IC50 was 41.3 nM in experiment [1], 3.1 nM on wild-type EGFR and 0.33 nM in experiment [4]. Further, the GI50 was determined as 5.38 nM in experiment [2] and 1.7 nM in experiment [3].
As to `COc1cc(N2CCN3CCC[C@@H]3C2)c(-c2cnn(C)c2)cc1Nc1ncc(Br)c(Nc2ccc3nccnc3c2P(C)(C)=O)n1` [compound 176], the IC50 stood at 61.9 nM in experiment [1], 3.26 nM at wild-type EGFR and 0.34 nM in experiment [4]. Besides, the GI50 in experiment [2] amounted to 5.96 nM; in experiment [3], 2.97 nM.
On the same counts, the results for `COc1cc(N2CCN(S(=O)(=O)C3CC3)CC2)c(-c2cnn(C)c2)cc1Nc1ncc(Br)c(Nc2ccc3nccnc3c2P(C)(C)=O)n1` [compound 178] are 168 nM, 7.68 nM, 1.29 nM, 13 nM and 2.86 nM.
The corresponding values for `COc1cc(N2CCC(N3CCC(OC)CC3)CC2)c(-c2cnn(C)c2)cc1Nc1ncc(Br)c(Nc2ccc3nccnc3c2P(C)(C)=O)n1` [compound 179] are 54.3 nM, 1.48 nM, 0.4 nM, 6.84 nM and 1.37 nM.
Take `COc1cc(N2CCC(N3CCC(F)CC3)CC2)c(-c2cnn(C)c2)cc1Nc1ncc(Br)c(Nc2ccc3nccnc3c2P(C)(C)=O)n1` [compound 180]: the figures for the IC50 (in experiment [1]; at wild-type EGFR; in experiment [4]) were 64.8 nM, 1.4 nM and 0.36 nM, respectively. The GI50 in experiment [2] is 6.53 nM; in experiment [3], 4.13 nM.
On the same counts, the results for `[2H]C([2H])([2H])OCCN1CCN(c2cc(OC)c(Nc3ncc(Br)c(Nc4ccc5nccnc5c4P(C)(C)=O)n3)cc2-c2cnn(C)c2)CC1` [compound 181] are 88.9 nM, 3.53 nM, 0.16 nM, 9.67 nM and 3.52 nM.
On the same counts, the results for `COc1cc(N2CCOC(COC(C)C)C2)c(-c2cnn(C)c2)cc1Nc1ncc(Br)c(Nc2ccc3nccnc3c2P(C)(C)=O)n1` (stereo not drawn) [compound 182] are 101 nM, 8.49 nM, 0.4 nM, 4.43 nM and 1.71 nM.
As to `COc1cc(N2CCC3(CCN(C)CC3)CC2)c(-c2cnn(C)c2)cc1Nc1ncc(Br)c(Nc2ccccc2N(C)S(=O)(=O)C2CC2)n1` [compound 183, N-(2-((5-Bromo-2-((2-methoxy-5-(1-methyl-1H-pyrazol-4-yl)-4-)(9-methyl-3,9-diazaspiro[5.5]undecan-3-yl)phenyl)amino)pyrimidin-4-yl)amino)phenyl-N-methylcyclopropanesulfonamide], the IC50 in experiment [1] came to 246 nM; at wild-type EGFR, 12.2 nM; in experiment [4] it was 1.12 nM. For the same compound, the GI50 in experiment [2] worked out at 27 nM; in experiment [3], 14.4 nM.
On the same counts, the results for `COc1cc(N2CCN(C3(C)COC3)CC2)c(-c2cnn(C)c2)cc1Nc1ncc(Br)c(Nc2ccc3nccnc3c2P(C)(C)=O)n1` [compound 184] are 218 nM, 2.23 nM, 0.24 nM, 5.67 nM and 2.28 nM.
Turning to `COc1cc(N2CCC(N3CC[C@H](OC)[C@H](F)C3)CC2)c(-c2cnn(C)c2)cc1Nc1ncc(Br)c(Nc2ccc3nccnc3c2P(C)(C)=O)n1` [compound 185], the IC50 in experiment [1] was determined as 127 nM; on wild-type EGFR, 2.42 nM; in experiment [4], 0.36 nM. Also, the figures for the GI50 in experiment [2] and in experiment [3] were 4.02 nM and 1.77 nM, respectively.
The corresponding values for `COc1cc(N2CCC(N3CCN(CC(F)F)CC3)CC2)c(-c2cnn(C)c2)cc1Nc1ncc(Br)c(Nc2ccc3nccnc3c2P(C)(C)=O)n1` [compound 186] are 62 nM, 1.19 nM, 0.37 nM, 3.47 nM and 1.39 nM.
On the same counts, the results for `COc1cc(N2CC[C@H](OC)[C@H](F)C2)c(-c2cnn(C)c2)cc1Nc1ncc(Br)c(Nc2ccc3nccnc3c2P(C)(C)=O)n1` [compound 187] are 245 nM, 5.73 nM, 0.04 nM, 8.73 nM and 2.11 nM.
Take `COc1cc(N2CCC(C)(OC)CC2)c(-c2cnn(C)c2)cc1Nc1ncc(Br)c(Nc2ccc3nccnc3c2P(C)(C)=O)n1` [compound 188]: the IC50 in experiment [1] was 56.6 nM; on wild-type EGFR, 5.62 nM; in experiment [4] it was 0.43 nM. For the same compound, the GI50 in experiment [2] was 0.87 nM; in experiment [3], 0.61 nM.
`COc1cc(N2CCC(N3CCN(C)CC3)C(F)C2)c(-c2cnn(C)c2)cc1Nc1ncc(Br)c(Nc2ccc3nccnc3c2P(C)(C)=O)n1` (stereo not drawn) [compound 189]: the figures for the IC50 (in experiment [1]; at wild-type EGFR; in experiment [4]) were 128 nM, 1.08 nM and 0.16 nM, respectively. For the same compound, the values for the GI50 in experiment [2] and in experiment [3] were 23.6 nM and 9.18 nM, respectively.
On the same counts, the results for `COc1cc(N2CCC(N3CCN(C)CC3)CC2)c(-c2cnn(C)c2)cc1Nc1ncc(Br)c(Nc2ccccc2N(C)S(=O)(=O)C2CC2)n1` [compound 190] are 194 nM, 4.37 nM, 0.53 nM, 8.69 nM and 4.16 nM.
For the compound `COc1cc(N2CCN(CCN3CCOCC3)CC2)c(-c2cnn(C)c2)cc1Nc1ncc(Br)c(Nc2ccc3nccnc3c2P(C)(C)=O)n1` [compound 191], the IC50 is 70 nM in experiment [1], 2.44 nM at wild-type EGFR and 0.23 nM in experiment [4]. The GI50 is 11.4 nM in experiment [2] and 3.47 nM in experiment [3].
